# System: T1, monoamine transporters, MATs (SERT, NET, DAT, VMAT2)
# T1 construct: rows headed: activity at MATs; stably transfected cells expressing the MAT of interest (HEK293 cells for SERT and NET)
# Experiment: Monoamine uptake inhibition, monoamine transporters collectively
# Format: cell-based
# Settings: uptake inhibition
# Description: The ability of the compounds of the present invention to inhibit uptake of monoamines by the serotonin transporter (SERT), norepinephrine transporter (NET), dopamine transporter (DAT), and vesicular monoamine transporter 2 (VMAT2) (collectively monoamine transporters, MATs) was measured using fluorescent substrate uptake assays in transfected cells (Table 14). The binding affinities of select compounds were also determined in radioligand displacement assays at SERT, NET, and/or DAT (Table 14).
# Uptake Inhibition. The ability of test compounds to block monoamine uptake by SERT, NET, DAT, and VMAT2 was determined using the Neurotransmitter Transporter Uptake Assay Kit manufactured by Molecular Devices (Cat #R8173). Briefly, stably transfected cells expressing the MAT of interest (HEK293 cells for SERT and NET; CHO cells for DAT) were grown and plated into 384-well plates at a concentration of 20,000 cells per well. Plates were then incubated for 16-20 h at 37° C. and 5% CO2. The medium was then aspirated and replaced with 25 μL of assay buffer (20 mM HEPES in HBSS, containing 0.1% BSA) containing the test compounds at the appropriate concentrations. Plates were then centrifuged at 300 rpm for 15 s and then incubated at 37° C. for 30 minutes. At this time, 25 μL of the proprietary fluorescent dye solution was added, the plates were incubated at 37° C. for 60 minutes, and then fluorescence was quantified on a plate reader (excitation wavelength=440 nm, emission wavelength=520 nm). The proprietary dye solution contains a mixture of 1) a fluorescent dye that mimics the endogenous substrates of MATs and is thereby actively transported to the intracellular compartment in the absence of an inhibitor and 2) a masking dye that inhibits the fluorescence of dye 1 in the extracellular compartment. Therefore, the overall fluorescence of the system increases as the fluorescent dye is transported into the cells.
compound,measurement,value
O=C1CCCCC1(c1ccccc1)N1CCOCC1 (stereo not shown) [Compound 31],activity at MATs,almost no activity
